Like-named read-outs stand apart in the source and are kept apart here.

Assay [1] deals with platelet aggregation stimulated by thrombin (gel-filtered platelets). Briefly: In vitro inhibition of thrombin-induced gel-filtered platelet aggregation. The assay is classed as cell-based, Human. The settings on record: agonist thrombin; for IC50: read-out: GFP Aggr. IC50 (μM), Thr; for inhibition at 50 µM: Homo sapiens, Platelet, read-out: GFP Aggr. % Inhibition, Thr. As to the method: (§1) In Vitro Inhibition of Thrombin-Induced Gel-Filtered Platelet Aggregation Assay
(§2) The percentage of platelet aggregation is calculated as an increase in light transmission of compound-treated platelet concentrate vs. control-treated platelet concentrate. Human blood is obtained from drug free, normal donors in tubes containing 0.13 M sodium citrate. Platelet rich plasma (PRP) is collected by centrifugation of whole blood at 200×g for 10 min at 25° C. The PRP (5 mL) is gel filtered through Sepharose 2B (bed volume 50 mL), and the platelet count is adjusted to 2×10^7 platelets per sample. The following constituents are added to a siliconized cuvette: concentrated platelet filtrate and Tyrode's buffer (0.14 M NaCl, 0.0027 M KCl, 0.012 M NaHCO3, 0.76 mM Na2HPO4, 0.0055 M glucose, 2 mg/mL BSA and 5.0 mM HEPES@pH 7.4) in an amount equal to 350 μL, 50 μL of 20 mM calcium and 50 μL of the test compound. Aggregation is monitored in a BIODATA aggregometer for the 3 min following the addition of agonist (thrombin 50 μL of 1 unit/mL).
(§3) Table 5 contains IC50 values (μM) or % inhibition@50 μM of the compounds against platelet aggregation stimulated (GFP Aggr.) by thrombin or TRAP-6 (Thr or TRAP-6) and IC50 values (μM) in a thrombin receptor (PAR-1) binding assay (Binding). The compounds of Table 5 correspond to those shown on Table 4.

Assay [2] concerns platelet aggregation stimulated by TRAP-6 (gel-filtered platelets). The assay can be described thus: In vitro inhibition of TRAP-6-induced gel-filtered platelet aggregation. The assay is classed as cell-based, Human. The note with it: for IC50: agonist TRAP-6, read-out: GFP Aggr. IC50 (μM), TRAP-6; for inhibition at 50 µM: read-out: GFP Aggr. % Inhibition, TRAP-6. How it is done: as §1, §2, §3

Assay [3] concerns the target T1, thrombin receptor (PAR-1) (Homo sapiens, UniProt P25116).
T1 construct: CHRF membranes (Jones, Biochim. Biophys. Acta 1992, 1136, 272) are thawed from −70° C; endogenous in cells; the full cell line name is own knowledge
T1 sequence (P25116 22-425): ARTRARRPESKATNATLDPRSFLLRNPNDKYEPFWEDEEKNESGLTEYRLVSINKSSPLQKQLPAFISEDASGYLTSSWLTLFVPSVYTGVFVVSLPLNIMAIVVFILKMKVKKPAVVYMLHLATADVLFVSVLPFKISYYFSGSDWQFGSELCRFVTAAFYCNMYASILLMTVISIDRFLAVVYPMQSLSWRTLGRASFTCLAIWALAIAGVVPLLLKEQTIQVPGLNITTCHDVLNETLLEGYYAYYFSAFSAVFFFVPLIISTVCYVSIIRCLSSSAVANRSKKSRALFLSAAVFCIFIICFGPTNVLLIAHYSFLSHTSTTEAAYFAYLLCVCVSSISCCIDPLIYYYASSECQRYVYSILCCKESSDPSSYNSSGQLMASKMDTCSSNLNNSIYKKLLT
Briefly: In vitro thrombin receptor binding assay (CHRF membranes, tritiated 721-40). The settings on record: thrombin receptor (PAR-1) binding, read-out: Binding IC50 (μM), Thr. How it is done:
In Vitro Thrombin Receptor Binding Assay
CHRF membranes (Jones, Biochim. Biophys. Acta 1992, 1136, 272) are thawed from −70° C., centrifuged at maximum speed for 5 min, washed twice with binding buffer (50 mM HEPES containing 5 mM MgCl2 and 0.1% BSA), and re-suspended in binding buffer (25 μg/[…]). 100 μL of membranes are added to the 24-Wallac plates and delivered to the Tomtech apparatus. In a typical experiment, 6 μL of samples (from a 125 μg/mL intermediary plate, 20% DMSO) and 44 μL buffer are delivered to the plates (final conc. of compounds is 3.7 μg/mL, 0.6% DMSO). Similarly, 6 μL 20% DMSO and 44 μL buffer are delivered to both column 1 (NSB) and column 12 (TB). 10 μL Ser-pFPhe-hArg-Leu-hArg-Lys-Tyr-NH2 (721-40; 500 μM in deionized water) is added to column 1.50 μL tritiated 721-40 (specific activity 46 Ci/mmol) is added to all the wells. The plates are mixed well for 20 seconds, incubated for 30 min, and then harvested with 10 mM HEPES/138 mM NaCl using the Skatron harvester. The filters (GF/C Brandel FPXLR 296) are presoaked 3 h in 0.5% polyethylenimine in HEPES/0.1M N-acetylglucosamine) are set in saran wrap and dried for 3 min in the microwave, and placed in sample bags (Wallac 1450-432). 4.5 mL scintillation fluid (Wallac, Betaplate Scint 1205-440) is added. The bags are sealed, placed in filter cassettes (Wallac 1450-104), and analyzed on the microbeta counter. […]

Where [4] appears, read: Homo sapiens, Platelet, agonist TRAP-6, % inhibition @ 50 μM.

On to `CN(C)Cc1cn(Cc2c(Cl)cccc2Cl)c2ccc3nc(N[C@@H](Cc4ccccc4)C(=O)N[C@@H](CCN)C(=O)NCc4ccccc4)nc(N)c3c12` [Compound 2, α-[[1-amino-7-[(2,6-dichlorophenyl)methyl]-9-[(dimethylamino)methyl]-7H-pyrrolo[3,2-f]quinazolin-3-yl]amino]-N-[(1S)-3-amino-1-[[(phenylmethyl)amino]carbonyl]propyl]-(α^1S)-benzenepropanamide], for which the figures for the IC50 in assay [1] and in assay [2] were 13 µM and 3 µM, respectively.

As to `CN(C)Cc1cn(Cc2c(Cl)cccc2Cl)c2ccc3nc(N(C)C)nc(N)c3c12` [Compound 3, 7-[(2,6-dichlorophenyl)methyl]-9-[(dimethylamino)methyl]-N^3,N^3-dimethyl-7H-pyrrolo[3,2-f]quinazoline-1,3-diamine], the inhibition (in general, the percentage by which the read-out fell short of the control) at 50 µM in assay [1] (% inhibition @ 50 μM) amounted to 27%; in assay [2] (setting [4]), 40%.

For `CN(C)Cc1cn(Cc2c(Cl)cccc2Cl)c2ccc3nc(NC4CC4)ncc3c12` [Compound 4, 3-(cyclopropylamino)-7-[(2,6-dichlorophenyl)methyl]-N,N-dimethyl-7H-pyrrolo[3,2-f]quinazoline-9-methanamine], the inhibition at 50 µM amounted to 30% in assay [1] (% inhibition @ 50 μM) and 20% in assay [2] (setting [4]).

Turning to `Nc1nc(Cl)nc2ccc3c(c(CN4CCCC4)cn3Cc3c(Cl)cccc3Cl)c12` [Compound 5, 3-chloro-7-[(2,6-dichlorophenyl)methyl]-9-(1-pyrrolidinylmethyl)-7H-pyrrolo[3,2-f]quinazolin-1-amine], the “GFP Aggr. % Inhibition, Thr” value in assay [1] (% inhibition @ 50 μM) is recorded as 16%. In addition, the “GFP Aggr. % Inhibition, TRAP-6” value in assay [2] (agonist TRAP-6, % inhibition @ 50 μM) came out at 32%.

For `COc1nc(Cl)nc2ccc3c(c(CN(C)C)cn3Cc3c(Cl)cccc3Cl)c12` [Compound 6, 3-chloro-7-[(2,6-dichlorophenyl)methyl]-1-methoxy-N,N-dimethyl-7H-pyrrolo[3,2-f]quinazoline-9-methanamine], the inhibition at 50 µM in assay [1] (% inhibition @ 50 μM) came to 40%. The IC50 (usually the concentration at which inhibition is half-maximal) in assay [2] (Homo sapiens, Platelet) was 31 µM.

For `CN(C)Cc1cn(Cc2c(Cl)cccc2Cl)c2ccc3nc(Cl)nc(N)c3c12` [Compound 7, 1-amino-3-chloro-7-[(2,6-dichlorophenyl)methyl]-N,N-dimethyl-7H-pyrrolo[3,2-f]quinazoline-9-methanamine], the results for the inhibition at 50 µM in assay [1] (% inhibition @ 50 μM) and in assay [2] (setting [4]) were 14% and 3%, respectively.

As for “N^3-cyclopropyl-7-[(2,6-dichlorophenyl)methyl]-9-[(dimethylamino)methyl]-7H-pyrrolo[3,2-f]quinazoline-1,3-diamine [Compound 1]”, the IC50 worked out at 9.6 µM in assay [3], 21 µM in assay [1] and 13 µM in assay [2].

The record behind these values is US6740657B2, “Aminomethyl-pyrroloquinazoline compounds as thrombin receptor antagonists” (Ortho-McNeil Pharmaceutical, Inc., priority 2001, dated 2004).
